Experimental data reported in PMC9114115, “Property space mapping of Pseudomonas aeruginosa permeability to small molecules” (Scientific Reports, 2022).
Several values for one entry are separate records, joined by “and”; a condition that tells them apart may be missing. Equal values may be shown once. Where a name gives a salt, the structure may show the parent alone.

test system: P. aeruginosa PAO1 cells; assay: LC–MS quantification of intracellular accumulation, PAO1; conditions: 1 min incubation, 10-80 µM;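 further: slope of accumulation versus external concentration fitted as a line through zero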
Method: (§1) PAO1-Pore and PΔ3-Pore were grown at 37 °C overnight with shaking at 225 rpm in 50 mM MOPS-M9 (pH 7.2) Minimal Medium supplemented with 1% glycerol[42],[43].
(§2) The next day, cells were sub-cultured (1.5:100) in fresh MOPS-M9 medium and grown for 16 h. The cultures were then split into two flasks and one of them was induced with 0.1 mM IPTG. Cells incubated for additional 4 h until OD600 reached ~ 1.0 and harvested by centrifugation at 3,275xg for 20 min in RT, washed and concentrated 10X in the spent medium. Assays were performed in 96-well plates in a final volume of […]. Cells were incubated with 10, 20, 40, 80 µM of compounds and after 1- and 40-min incubation at RT, 100 µL cell aliquots were collected by vacuum filtration onto 1.0 µm Glass Fiber Type B filters. For no-cell controls, compounds were diluted to 10, 20, 40, 80 µM final concentration in the same medium, incubated for 1 min and 40 min and filtered onto the same plates. The cell loaded and cell-free filters were dried, removed from plates and placed into 100% methanol at -80 °C for at least 10 min. Filter-bound material was extracted by water bath sonication for 1 min. Cell and filter debris were separated by ultracentrifugation at 45,000 rpm (TLA55 rotor, Beckman) for 8 min at 16 °C and the pellet re-extracted with 80% methanol in water by sonication for 15 min followed by ultracentrifugation at the same conditions. Supernatants from two extractions were combined. For the compound quantification, 5 µL of solution was analyzed in triplicate.
(§3) Calibration curves for MS analyses of compounds were generated in the same experiment by mixing compound at increasing concentrations with the sonicated PAO1 cell extracts. […] Azithromycin was used as a positive control in all experiments.
(§4) Samples were processed in positive ion mode. An Eclipse plus C18 Rapid Resolution HD column (1.8 μm, 2.1 × 50 mm, Agilent, USA) was used for separation. The flow rate was 0.6 mL/min using the following gradient: 0 to 1 min (0- 20% ACN), 1 to 4 min (20- 80% ACN), 4 to 5.1 min (80–100% ACN), 5.1 to 6.30 (100% ACN). Solvents contained 0.1% formic acid to promote positive ion formation in the electrospray. […] Data were analyzed using Agilent Masshunter workstation quantitative analysis v. B.10 software.

In order of rising “Concentration slopes of accumulation, PAO1_1 min” value:
1. O=C1CC2(CCCC2)CC(=O)N1CCCCN1CCN(c2ncccn2)CC1 [OU-0000735, Buspirone HCl]  6.08
2. COc1ccc(CCN(C)CCCC(C#N)(c2ccc(OC)c(OC)c2)C(C)C)cc1OC (stereo not shown) [OU-0000734, Verapamil HCl]  12.96
3. CCn1cc(C(=O)O)c(=O)c2cc(F)c(N3CCN(C)CC3)cc21 [OU-0000619, PEFLOXACINE MESYLATE]  14.50
4. O=C(c1ccc(OCCN2CCCCC2)cc1)c1c(-c2ccc(O)cc2)sc2cc(O)ccc12 [OU-0000741, Raloxifene HCl]  45.85

same assay, conditions: 40 min incubation, 10-80 µM

In order of falling “Concentration slopes of accumulation, PAO1_40 min” value:
1. O=C(c1ccc(OCCN2CCCCC2)cc1)c1c(-c2ccc(O)cc2)sc2cc(O)ccc12 [OU-0000741, Raloxifene HCl]  26.99
2. CCn1cc(C(=O)O)c(=O)c2cc(F)c(N3CCN(C)CC3)cc21 [OU-0000619, PEFLOXACINE MESYLATE]  14.54
3. COc1ccc(CCN(C)CCCC(C#N)(c2ccc(OC)c(OC)c2)C(C)C)cc1OC (stereo not shown) [OU-0000734, Verapamil HCl]  13.17
4. O=C1CC2(CCCC2)CC(=O)N1CCCCN1CCN(c2ncccn2)CC1 [OU-0000735, Buspirone HCl]  7.21

test system: P. aeruginosa PAO1; assay: MIC by two-fold dilution, wild type PAO1; assay type: cell-based, Pseudomonas aeruginosa; conditions: Pseudomonas aeruginosa; PAO1, MOPS-M9 medium; read-out: MICs
Method: (§5) In all experiments, P. aeruginosa PAO1-Pore (PAO1 attTn7::PLAC-fhuA) and PΔ3-Pore (ΔmexAB ΔmexCD ΔmexXY attTn7::PLAC-fhuA) strains were used[29]. Strains were routinely grown in Luria–Bertani (LB) or MOPS-M9 medium at 37 °C with aeration. MICs shown in Tables 1 and 2 were determined by a two-fold dilution method in LB broth and MOPS-M9 medium, respectively, following the previously described protocol.

In the case of `CCn1cc(C(=O)O)c(=O)c2cc(F)c(N3CCN(C)CC3)cc21` [OU-0000619, PEFLOXACINE MESYLATE], the MIC is reported as 2 µM and 0.9 µg/mL.

test system: P. aeruginosa PAO1-Pore cells; assay: LC–MS quantification of intracellular accumulation, PAO1-Pore; conditions: 1 min incubation, 10-80 µM;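 further: slope of accumulation versus external concentration fitted as a line through zero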
Method: as §1, §2, §3, §4

In order of rising “Concentration slopes of accumulation, PAO1-Pore_1 min” value:
1. O=C1CC2(CCCC2)CC(=O)N1CCCCN1CCN(c2ncccn2)CC1 [OU-0000735, Buspirone HCl]  7.76
2. COc1ccc(CCN(C)CCCC(C#N)(c2ccc(OC)c(OC)c2)C(C)C)cc1OC (stereo not shown) [OU-0000734, Verapamil HCl]  16.77
3. CCn1cc(C(=O)O)c(=O)c2cc(F)c(N3CCN(C)CC3)cc21 [OU-0000619, PEFLOXACINE MESYLATE]  25.74
4. O=C(c1ccc(OCCN2CCCCC2)cc1)c1c(-c2ccc(O)cc2)sc2cc(O)ccc12 [OU-0000741, Raloxifene HCl]  56.66

same assay, conditions: 40 min incubation, 10-80 µM

In order of falling “Concentration slopes of accumulation, PAO1-Pore_40 min” value:
1. O=C(c1ccc(OCCN2CCCCC2)cc1)c1c(-c2ccc(O)cc2)sc2cc(O)ccc12 [OU-0000741, Raloxifene HCl]  52.80
2. CCn1cc(C(=O)O)c(=O)c2cc(F)c(N3CCN(C)CC3)cc21 [OU-0000619, PEFLOXACINE MESYLATE]  33.41
3. COc1ccc(CCN(C)CCCC(C#N)(c2ccc(OC)c(OC)c2)C(C)C)cc1OC (stereo not shown) [OU-0000734, Verapamil HCl]  15.63
4. O=C1CC2(CCCC2)CC(=O)N1CCCCN1CCN(c2ncccn2)CC1 [OU-0000735, Buspirone HCl]  7.56

test system: P. aeruginosa PΔ3-Pore cells; assay: LC–MS quantification of intracellular accumulation, PΔ3-Pore; conditions: 1 min incubation, 10-80 µM;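 further: slope of accumulation versus external concentration fitted as a line through zero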
Method: as §1, §2, §3, §4

In order of falling “Concentration slopes of accumulation, PΔ3-Pore_1 min” value:
1. O=C(c1ccc(OCCN2CCCCC2)cc1)c1c(-c2ccc(O)cc2)sc2cc(O)ccc12 [OU-0000741, Raloxifene HCl]  83.30
2. CCn1cc(C(=O)O)c(=O)c2cc(F)c(N3CCN(C)CC3)cc21 [OU-0000619, PEFLOXACINE MESYLATE]  32.20
3. COc1ccc(CCN(C)CCCC(C#N)(c2ccc(OC)c(OC)c2)C(C)C)cc1OC (stereo not shown) [OU-0000734, Verapamil HCl]  17.77
4. O=C1CC2(CCCC2)CC(=O)N1CCCCN1CCN(c2ncccn2)CC1 [OU-0000735, Buspirone HCl]  9.57

same assay, conditions: 40 min incubation, 10-80 µM

In order of rising “Concentration slopes of accumulation, PΔ3-Pore_40min” value:
1. O=C1CC2(CCCC2)CC(=O)N1CCCCN1CCN(c2ncccn2)CC1 [OU-0000735, Buspirone HCl]  9.56
2. COc1ccc(CCN(C)CCCC(C#N)(c2ccc(OC)c(OC)c2)C(C)C)cc1OC (stereo not shown) [OU-0000734, Verapamil HCl]  18.38
3. CCn1cc(C(=O)O)c(=O)c2cc(F)c(N3CCN(C)CC3)cc21 [OU-0000619, PEFLOXACINE MESYLATE]  39.09
4. O=C(c1ccc(OCCN2CCCCC2)cc1)c1c(-c2ccc(O)cc2)sc2cc(O)ccc12 [OU-0000741, Raloxifene HCl]  77.54

test system: P. aeruginosa PΔ3 cells; assay: not given; conditions: 1 min incubation, 10-80 µM;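 further: slope of accumulation versus external concentration fitted as a line through zero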
Method: as §1, §2, §3, §4

In order of falling “Concentration slopes of accumulation, PΔ3_1 min” value:
1. O=C(c1ccc(OCCN2CCCCC2)cc1)c1c(-c2ccc(O)cc2)sc2cc(O)ccc12 [OU-0000741, Raloxifene HCl]  69.39
2. CCn1cc(C(=O)O)c(=O)c2cc(F)c(N3CCN(C)CC3)cc21 [OU-0000619, PEFLOXACINE MESYLATE]  21.54
3. COc1ccc(CCN(C)CCCC(C#N)(c2ccc(OC)c(OC)c2)C(C)C)cc1OC (stereo not shown) [OU-0000734, Verapamil HCl]  12.95
4. O=C1CC2(CCCC2)CC(=O)N1CCCCN1CCN(c2ncccn2)CC1 [OU-0000735, Buspirone HCl]  6.98

same assay, conditions: 40 min incubation, 10-80 µM

In order of rising “Concentration slopes of accumulation, PΔ3_40 min” value:
1. O=C1CC2(CCCC2)CC(=O)N1CCCCN1CCN(c2ncccn2)CC1 [OU-0000735, Buspirone HCl]  6.60
2. COc1ccc(CCN(C)CCCC(C#N)(c2ccc(OC)c(OC)c2)C(C)C)cc1OC (stereo not shown) [OU-0000734, Verapamil HCl]  12.00
3. CCn1cc(C(=O)O)c(=O)c2cc(F)c(N3CCN(C)CC3)cc21 [OU-0000619, PEFLOXACINE MESYLATE]  34.80
4. O=C(c1ccc(OCCN2CCCCC2)cc1)c1c(-c2ccc(O)cc2)sc2cc(O)ccc12 [OU-0000741, Raloxifene HCl]  35.59

test system: P. aeruginosa PAO1-Pore; assay: MIC by two-fold dilution, hyperporinated PAO1-Pore; assay type: cell-based, Pseudomonas aeruginosa; conditions: PAO1-Pore, LB broth, Table S2
Method: as §5

`CCn1cc(C(=O)O)c(=O)c2cc(F)c(N3CCN(C)CC3)cc21` [OU-0000619, PEFLOXACINE MESYLATE] was tested, and the MICs was 0.25.

same assay, conditions: Pseudomonas aeruginosa, PAO1, read-out: MICs

For `CCn1cc(C(=O)O)c(=O)c2cc(F)c(N3CCN(C)CC3)cc21` [OU-0000619, PEFLOXACINE MESYLATE], the MIC was 0.25 µM and 0.11 µg/mL.

test system: P. aeruginosa PΔ3-Pore; assay: MIC by two-fold dilution, barrierless PΔ3-Pore; assay type: cell-based, Pseudomonas aeruginosa; conditions: Pseudomonas aeruginosa, read-out: MICs, P∆3-Pore, MOPS-M9 medium
Method: as §5

In the case of `CCn1cc(C(=O)O)c(=O)c2cc(F)c(N3CCN(C)CC3)cc21` [OU-0000619, PEFLOXACINE MESYLATE], the MIC is reported as 0.03 µg/mL.

same assay, conditions: P∆3-Pore, LB broth, Table S2

`CCn1cc(C(=O)O)c(=O)c2cc(F)c(N3CCN(C)CC3)cc21` [OU-0000619, PEFLOXACINE MESYLATE] gave an MICs of 0.0039.
